Experimental data: PubChem BioAssay (NCI)
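Values below derive from 48-hour exposures of cells grown in 96-well plates, with endpoints linearly interpolated between the two concentrations bracketing the appropriate inhibition level. Abbreviation: GI50, concentration required for 50% inhibition of growth. TGI marks complete inhibition of growth.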

How the values were obtained:
Experiment in all cases: NCI tumour cell line growth inhibition, 48 h
786-0 renal = test system: 786-0 renal
MCF7 breast = test system: MCF7 breast
SR leukemia = test system: SR leukemia
M14 melanoma = test system: M14 melanoma
MALME-3M melanoma = test system: MALME-3M melanoma
MDA-N = test system: MDA-N
NCI-H522 lung = test system: NCI-H522 lung
P388/ADR leukemia = test system: P388/ADR leukemia
SN12K1 renal = test system: SN12K1 renal
M19-MEL melanoma = test system: M19-MEL melanoma
HOP-18 NSCLC = test system: HOP-18 NSCLC
DLD-1 colon = test system: DLD-1 colon
P388 leukemia = test system: P388 leukemia
LXFL 529 NSCLC = test system: LXFL 529 NSCLC

Structure (SMILES)	TGI (786-0 renal) [µM]	TGI (MCF7 breast) [µM]	TGI (SR leukemia) [µM]	TGI (M14 melanoma) [µM]	TGI (MALME-3M melanoma) [µM]	TGI (MDA-N) [µM]	TGI (NCI-H522 lung) [µM]	TGI (P388/ADR leukemia) [µM]	TGI (SN12K1 renal) [µM]	TGI (M19-MEL melanoma) [µM]	TGI (HOP-18 NSCLC) [µM]	TGI (DLD-1 colon) [µM]	TGI (P388 leukemia) [µM]	TGI (LXFL 529 NSCLC) [µM]	GI50 (MCF7 breast) [µM]	GI50 (SN12K1 renal) [µM]	GI50 (MALME-3M melanoma) [µM]	GI50 (M19-MEL melanoma) [µM]	GI50 (NCI-H522 lung) [µM]	GI50 (P388 leukemia) [µM]
OCCNCCN1CCN(CCCN2c3ccccc3Sc3ccc(C(F)(F)F)cc32)CC1	31	39.8	> 100	30.2	45	33.7	36.6	–	–	–	–	–	–	–	–	–	–	–	–	–
CC(=O)Oc1cc2c(cc1OC(C)=O)OCC(c1ccccc1)C2 (stereo not drawn)	–	66.8	–	–	37.9	–	7.47	11.7	38.6	45.7	63.2	27.4	9.97	–	–	–	–	–	–	–
CCCNC(=O)C(C)C1CCC2(C)C=CC(=O)C(C)=C2C1O (stereo not drawn)	–	> 100	–	–	–	–	> 100	> 100	> 100	> 100	> 100	> 100	> 100	–	–	–	–	–	–	–
N#C[C@H](OC1OC(COC2OC(CO)C(O)C(O)C2O)C(O)C(O)C1O)c1ccccc1 (stereo partly drawn)	–	> 250	–	–	> 250	–	> 250	> 158	> 250	> 250	> 250	> 250	> 250	–	–	–	–	–	–	–
CN(C)CCCN1c2ccccc2Sc2ccc3ccccc3c21	23.4	14.9	3.84	3.3	21.6	15.1	22.8	–	–	–	–	–	–	–	–	–	–	–	–	–
O=C(CCl)NNC1=Nc2ccc(Cl)cc2SC1	–	7.62	–	–	3.31	–	1.85	3.52	7.94	5.46	3.36	3.6	1.07	–	–	–	–	–	–	–
O=C1OC2(CC1C1(O)C3CC4CC(C3)CC1C4)C1CC3CC(C1)CC2C3 (stereo not drawn)	–	–	–	> 100	> 100	–	–	–	–	> 100	35.8	> 100	–	> 100	–	–	–	–	–	–
O=C(O)c1cc2c(ncc3c(=O)n(-c4ccccc4)[nH]c32)s1	–	–	> 100	> 100	> 100	–	> 100	–	–	> 100	> 100	> 100	–	> 100	–	–	–	–	–	–
Cc1ccc(C2OC(COCc3ccc(Cl)cc3)C(OCc3ccc(Cl)cc3)C2O)cc1 (stereo not drawn)	–	–	> 100	–	–	–	–	–	–	38.1	> 100	34.1	–	58.5	–	–	–	–	–	–
CCCc1c(-c2ccccc2)[nH]c2ccccc2c1=O	–	> 100	> 100	> 100	> 100	> 100	–	–	–	–	–	–	–	–	–	–	–	–	–	–
Cn1c(=O)c2[nH]c(CCNC(=O)c3ccccc3)nc2n(C)c1=O	> 100	–	> 100	> 100	> 100	> 100	> 100	–	–	–	–	–	–	–	–	–	–	–	–	–
CCN(CC)c1ccc2cc(C(=O)Nc3ccc4[nH]c(C(=O)N5C[C@@H](CCl)c6c5cc(OC(=O)Nc5ccccc5)c5[nH]cc(C)c65)cc4c3)oc2c1	–	> 1000	–	–	> 1000	–	> 1000	> 1000	387	922	–	–	–	–	68.8	128	510	237	438	89.4
COc1nc(=O)n(COC(CO)CN2C(=O)c3ccccc3C2=O)cc1Cc1cccc(OCc2ccccc2)c1 (stereo not drawn)	–	–	–	43.6	–	–	–	–	–	45.2	72.5	> 100	–	> 100	–	–	–	–	–	–
O=c1ssc(=Nc2ccccc2)n1-c1ccccc1	34.6	35.7	40.9	48.3	> 100	> 100	–	–	–	–	–	–	–	–	–	–	–	–	–	–
O=C(Nc1nc2ccc([N+](=O)[O-])cc2s1)C(=O)C(C(=O)c1ccccc1F)C1OC(=O)c2ccccc21 (stereo not drawn)	–	–	54.2	> 100	–	–	51.8	–	–	> 100	–	> 100	–	> 100	–	–	–	–	–	–
Nc1ccn(C2C=C(CO)C(O)C2O)c(=O)c1 (stereo not drawn)	–	> 625	–	–	–	–	–	–	> 625	> 625	> 625	> 62.5	–	–	–	–	–	–	–	–
